In series [1] the target is T1, hNET (Homo sapiens, UniProt P23975). In words: biochemical. The series is classed as binding.
Series [2] has as its target T2, hDAT (Homo sapiens, UniProt Q01959). Nature of the series: [3H]Dopamine release, HEK-hDAT cells. The series is classed as cell-based.
In series [3] the target is T3, human 5-HT2A receptor (Homo sapiens, UniProt P28223). Nature of the series: IP-1 formation, HEK-5-HT2A cells. The series is classed as cell-based. Conditions: for Emax: read-out: 5-HT2A Function IP-1 formation % maximal effect.
In series [4] the target is T2, hDAT. In words: [125I]RTI-55 binding, HEK-hDAT cells.
In a further series the test system is Male Sprague-Dawley rats. Nature of the series: Adverse effects observed during drug discrimination test sessions. The series is classed as in vivo, rat.
Series [5] deals with rats trained to discriminate METH (1 mg/kg) from saline. The series is classed as in vivo, rat. Conditions: METH-trained rats.
The target in series [6] is T2, hDAT. Nature of the series: [3H]Dopamine uptake, HEK-hDAT cells. In kind it is cell-based.
For series [7], the system named is rats trained to discriminate DOM (0.5 mg/kg) from saline. The series is classed as in vivo, rat.
The target in series [8] is T4, human 5-HT2C receptor (Homo sapiens, UniProt P28335).
T4 sequence (P28335 33-458): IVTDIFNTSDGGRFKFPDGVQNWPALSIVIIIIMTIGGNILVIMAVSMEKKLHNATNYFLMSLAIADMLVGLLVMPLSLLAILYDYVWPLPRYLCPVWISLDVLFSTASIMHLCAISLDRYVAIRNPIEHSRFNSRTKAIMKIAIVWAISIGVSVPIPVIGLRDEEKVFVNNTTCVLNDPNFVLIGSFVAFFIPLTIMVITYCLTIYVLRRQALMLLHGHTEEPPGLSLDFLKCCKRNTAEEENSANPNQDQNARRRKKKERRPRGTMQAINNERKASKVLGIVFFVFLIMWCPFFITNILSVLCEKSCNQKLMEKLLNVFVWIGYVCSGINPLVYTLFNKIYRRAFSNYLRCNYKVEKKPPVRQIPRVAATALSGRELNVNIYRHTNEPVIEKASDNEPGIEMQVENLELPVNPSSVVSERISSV
In words: cell-based. Conditions: for Emax: read-out: 5-HT2C Function IP-formation % maximal effect.

For series [9], the target named is T5, hSERT (Homo sapiens, UniProt P31645). Nature of the series: [125I]RTI-55 binding, HEK-hSERT cells.
Series [10] concerns rats trained to discriminate DMT (5 mg/kg) from saline. The series is classed as in vivo, rat. Conditions: DMT-trained rats.
Series [11] deals with T6, human 5-HT1A receptor (Homo sapiens, UniProt P08908).
T6 sequence (P08908 1-422): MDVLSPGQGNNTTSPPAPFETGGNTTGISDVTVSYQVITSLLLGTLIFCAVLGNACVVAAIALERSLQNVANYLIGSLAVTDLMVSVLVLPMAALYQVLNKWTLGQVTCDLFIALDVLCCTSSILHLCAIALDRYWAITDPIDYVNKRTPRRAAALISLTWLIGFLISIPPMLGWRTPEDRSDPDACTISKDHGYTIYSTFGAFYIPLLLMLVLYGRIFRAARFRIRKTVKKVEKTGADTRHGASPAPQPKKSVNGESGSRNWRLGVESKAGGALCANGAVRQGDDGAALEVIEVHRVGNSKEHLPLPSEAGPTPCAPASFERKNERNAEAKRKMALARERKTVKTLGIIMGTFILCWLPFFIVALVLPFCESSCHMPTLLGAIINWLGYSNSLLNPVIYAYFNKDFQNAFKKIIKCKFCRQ
Nature of the series: [35S]GTPγS binding functional assay, HEK-5-HT1A. In kind it is biochemical. Conditions: for Emax: read-out: 5-HT1A Function [35S]GTPγS Binding % maximal effect. A general note: GTPγS is a poorly hydrolysed GTP analogue; its binding reports G protein activation.

Series [12] has as its target T4, human 5-HT2C receptor. Nature of the series: biochemical. In kind it is binding.
Series [13] relates to rats trained to discriminate LSD (0.1 mg/kg) from saline. In kind it is in vivo, rat. The settings on record: LSD-trained rats; for Maximum %DAR (drug-appropriate responding): i.p., at dose of maximum DAR.
The target in series [14] is T5, hSERT. Nature of the series: [3H]Serotonin release, HEK-hSERT cells. The series is classed as cell-based.
In series [15] the test system is rats trained to discriminate MDMA (1.5 mg/kg) from saline. In kind it is in vivo, rat. Conditions: MDMA-trained rats.
Series [16] has as its target T3, human 5-HT2A receptor. In words: [125I]DOI binding, HEK-5-HT2A cells.
The target of series [17] is T6, human 5-HT1A receptor. Nature of the series: [3H]8-OH-DPAT binding, HEK-5-HT1A.
For series [18], the target named is T1, hNET. In words: cell-based.
Series [19] deals with T5, hSERT. In words: [3H]Serotonin uptake, HEK-hSERT cells. The series is classed as cell-based.
Series [20] concerns the target T1, hNET. In words: cell-based. This is another data set of the same source.
Series [21] deals with T3, human 5-HT2A receptor. Nature of the series: [3H]AA release from HEK-5-HT2A cells. In kind it is cell-based.
The next series deals with Male Swiss–Webster mice. In words: Locomotor activity. The series is classed as in vivo, mouse.
The test system of a further series is 5-HT2A. The settings on record: ref McLean et al. 2006; cited from earlier work.
Series [22] has as its target T1, hNET. Conditions: read-out: [3H]NE release EC50; HEK-hNET cells; ref Gatch et al., 2011; cited from earlier work.
The target of series [23] is T5, hSERT. Conditions: read-out: [3H]Serotonin release EC50; HEK-hSERT cells; ref Gatch et al., 2011; cited from earlier work.
The target in series [24] is T2, hDAT. Conditions: read-out: [3H]Dopamine release EC50; HEK-hDAT cells; ref Gatch et al., 2011; cited from earlier work.
[25] abbreviates: 10 mg/kg, METH-trained rats, 15 min.
Setting [26] is: i.p., 15 min pretreatment, at dose of maximum DAR.

Several values for one entry are separate records, joined by “and”; a condition that tells them apart may be missing. Identical values can stand only once. Like-named read-outs stand apart in the source and are kept apart here.

T1 sequence (P23975 whole entry): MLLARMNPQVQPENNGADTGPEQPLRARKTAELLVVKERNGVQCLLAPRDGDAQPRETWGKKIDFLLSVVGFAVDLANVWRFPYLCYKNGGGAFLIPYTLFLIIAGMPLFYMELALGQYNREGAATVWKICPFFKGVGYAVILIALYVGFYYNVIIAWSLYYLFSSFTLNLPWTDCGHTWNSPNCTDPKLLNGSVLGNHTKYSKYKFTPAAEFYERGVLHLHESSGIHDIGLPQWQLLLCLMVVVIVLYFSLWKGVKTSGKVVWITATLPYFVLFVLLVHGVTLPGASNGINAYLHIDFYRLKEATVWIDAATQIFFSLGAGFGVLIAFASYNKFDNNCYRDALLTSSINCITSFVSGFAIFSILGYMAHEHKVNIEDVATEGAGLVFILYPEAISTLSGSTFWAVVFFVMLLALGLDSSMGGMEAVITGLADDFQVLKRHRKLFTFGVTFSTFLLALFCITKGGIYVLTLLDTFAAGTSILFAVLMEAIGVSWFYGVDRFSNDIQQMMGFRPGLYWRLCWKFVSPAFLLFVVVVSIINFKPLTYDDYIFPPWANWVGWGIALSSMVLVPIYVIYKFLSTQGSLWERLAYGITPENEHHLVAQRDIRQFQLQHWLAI
T5 sequence (P31645 whole entry): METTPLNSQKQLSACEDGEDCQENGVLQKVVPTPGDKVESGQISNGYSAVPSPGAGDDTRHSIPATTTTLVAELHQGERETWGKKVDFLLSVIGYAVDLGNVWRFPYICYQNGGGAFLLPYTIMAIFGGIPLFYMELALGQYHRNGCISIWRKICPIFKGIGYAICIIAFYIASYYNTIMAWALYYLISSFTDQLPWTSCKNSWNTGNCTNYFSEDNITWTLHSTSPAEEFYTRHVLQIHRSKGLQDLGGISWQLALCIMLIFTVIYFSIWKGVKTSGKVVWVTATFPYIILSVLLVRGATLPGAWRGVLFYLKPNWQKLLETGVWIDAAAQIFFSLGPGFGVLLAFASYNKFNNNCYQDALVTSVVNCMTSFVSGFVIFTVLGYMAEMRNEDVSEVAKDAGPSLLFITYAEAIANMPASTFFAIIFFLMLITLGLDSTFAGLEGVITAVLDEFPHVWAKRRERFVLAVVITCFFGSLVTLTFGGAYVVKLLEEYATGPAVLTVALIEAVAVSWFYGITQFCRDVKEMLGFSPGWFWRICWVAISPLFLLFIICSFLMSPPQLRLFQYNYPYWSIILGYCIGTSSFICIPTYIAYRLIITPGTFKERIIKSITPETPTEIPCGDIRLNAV
T2 sequence (Q01959 whole entry): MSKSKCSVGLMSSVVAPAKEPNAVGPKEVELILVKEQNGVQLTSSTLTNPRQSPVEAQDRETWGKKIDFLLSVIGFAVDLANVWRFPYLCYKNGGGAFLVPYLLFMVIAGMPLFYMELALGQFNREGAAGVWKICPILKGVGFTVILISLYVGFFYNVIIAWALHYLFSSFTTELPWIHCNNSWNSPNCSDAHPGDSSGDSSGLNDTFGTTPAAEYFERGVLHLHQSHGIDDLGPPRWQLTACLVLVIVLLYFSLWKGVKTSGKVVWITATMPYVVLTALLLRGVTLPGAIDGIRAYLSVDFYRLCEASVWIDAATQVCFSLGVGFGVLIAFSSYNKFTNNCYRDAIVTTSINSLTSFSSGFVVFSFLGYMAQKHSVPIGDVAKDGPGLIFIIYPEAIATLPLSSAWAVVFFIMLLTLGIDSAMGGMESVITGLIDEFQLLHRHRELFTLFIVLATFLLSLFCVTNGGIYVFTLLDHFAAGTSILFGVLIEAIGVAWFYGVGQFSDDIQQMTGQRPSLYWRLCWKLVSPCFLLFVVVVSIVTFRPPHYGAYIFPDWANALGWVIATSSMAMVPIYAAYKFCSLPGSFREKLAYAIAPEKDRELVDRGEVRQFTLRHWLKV
T3 sequence (P28223 whole entry): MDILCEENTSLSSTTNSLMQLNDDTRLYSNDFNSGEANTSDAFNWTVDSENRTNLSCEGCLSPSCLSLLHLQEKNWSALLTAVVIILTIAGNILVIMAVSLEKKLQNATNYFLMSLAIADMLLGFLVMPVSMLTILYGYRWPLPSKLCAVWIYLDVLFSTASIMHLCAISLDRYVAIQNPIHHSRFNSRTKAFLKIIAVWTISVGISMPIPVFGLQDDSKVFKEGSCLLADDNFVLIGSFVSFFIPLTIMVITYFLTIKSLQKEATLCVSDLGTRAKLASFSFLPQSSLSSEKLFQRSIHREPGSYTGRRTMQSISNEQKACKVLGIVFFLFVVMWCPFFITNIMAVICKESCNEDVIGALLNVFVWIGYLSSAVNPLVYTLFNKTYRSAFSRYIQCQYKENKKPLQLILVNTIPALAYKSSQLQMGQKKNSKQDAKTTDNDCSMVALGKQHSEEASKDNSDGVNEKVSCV

Broadly, the Ki is a measure of affinity in units of concentration, obtained from inhibition or displacement. One may read the EC50 as the concentration that produces a half-maximal response. As a reminder, the IC50 is the point on the concentration scale where inhibition reaches its midpoint. A high value points to a need for much substance. As to `COc1cc(CCN)c(OC)cc1C` [2C-D, 2,5-dimethoxy-4-methylphenethylamine], the Ki at hNET [1] is more than 8.5 µM; at hDAT [4], more than 10 µM; on hSERT [9], more than 10 µM; at human 5-HT2C receptor [12], 0.0127 ± 0.0013 µM; at human 5-HT2A receptor [16] it was 0.0239 ± 0.0039 µM; on human 5-HT1A receptor [17], 1.63 ± 0.15 µM. Further, the “[3H]Dopamine release % METH maximal effect” value at hDAT [2] (HEK-hDAT cells) is on record as “ND Minimal”. Besides, the concentration for a half-maximal effect (EC50) at human 5-HT2A receptor [3] was 0.145 ± 0.039 µM; on human 5-HT2C receptor [8], 0.0711 ± 0.008 µM; on human 5-HT1A receptor [11], more than 10 µM; on human 5-HT2A receptor [21], 0.153 ± 0.028 µM. Besides, the Emax was 93 ± 6.7% on human 5-HT2A receptor [3], 100 ± 14% on human 5-HT2C receptor [8], less than 25% at human 5-HT1A receptor [11] and 81.1 ± 9.7% at human 5-HT2A receptor [21] (read-out: 5-HT2A Function [3H]AA release % maximal effect). Also, the “Rats that failed to complete the first fixed ratio” value in the series with Male Sprague-Dawley rats (setting [25]) is recorded as 4/6. For the same compound, the “Reddening of the extremities (rats affected/tested)” value in the series on Male Sprague-Dawley rats (setting [25]) was 2/6. Besides, the “Rats with salivation and failure to complete the first fixed ratio” value with Male Sprague-Dawley rats (50 mg/kg, 70 min) is “Two of three”. The “Rate of responding at dose of maximum DAR” value was 0.190±0.086 resp/s in series [5] (15 min pretreatment); 0.072±0.032 resp/s in series [5] (70 min pretreatment); 0.383±0.038 resp/s in [7] (15 min pretreatment); 0.338±0.187 resp/s in series [7] (70 min pretreatment); 0.154±0.070 resp/s in series [10] (15 min pretreatment); 0.332±0.067 resp/s in series [10] (70 min pretreatment). In addition, the “Rate of responding at dose of maximum DAR” value stood at 0.385±0.060 resp/s in series [13] (15 min pretreatment), 0.379±0.054 resp/s in series [13] (70 min pretreatment), 0.402±0.073 resp/s in [15] (15 min pretreatment) and 0.547±0.127 resp/s in [15] (70 min pretreatment). Moreover, the “Maximum %DAR (drug-appropriate responding)” value in [5] (setting [26]) is 15±15 ^2%; in series [7] (setting [26]), 100±0 %; in [10] (i.p., 70 min pretreatment, at dose of maximum DAR), 83±17 %; in series [13] (15 min pretreatment), 83±17 %; in [13] (70 min pretreatment), 83±17 %; in [15] (setting [26]), 61% and 61±20 ^2%. Also, the half-inhibitory concentration (IC50) against hDAT [6] is more than 10 µM; at hSERT [19], more than 8.4 µM; on hNET [20], more than 9.2 µM. On hSERT [14], the “[3H]Serotonin release % PCA maximal effect” value is listed as “ND Minimal”. In addition, the “[3H]NE release % METH maximal effect” value at hNET [18] is recorded as “ND Minimal”. For the same compound, the “Lethality (mice)” value in the series with Male Swiss–Webster mice (100 mg/kg i.p., within 30 min) is recorded as 8/8. Further, the “Doses producing stimulant effects on locomotor activity” value with Male Swiss–Webster mice (mice, i.p.) was determined as 3 mg/kg. Besides, the “Duration of depressant effects” value with Male Swiss–Webster mice (mice, i.p.) lay in the range of 20 to 40 min. Further, the “Duration of stimulant effects” value in the series on Male Swiss–Webster mice (mice, i.p.) was 180 min. In addition, the “Onset of depressant effects (within, after injection)” value in the series with Male Swiss–Webster mice (mice, i.p.) is not above 10 min. Moreover, the “Onset of stimulant effects (within, after injection)” value in the series on Male Swiss–Webster mice (mice, i.p.) is not above 50 min.

For `COc1cc(Br)c(OC)c2c1[C@H](CN)C2` [((R)-4-bromo-3,6-dimethoxybenzocyclobuten-1-yl)methyl-amine)], the “Fold more potent at stimulating inositol phosphate turnover than AA release” value in the series with 5-HT2A is listed as 65 fold.

Consider `CN[C@@H](C)Cc1ccccc1` [METH, methamphetamine, reference compound], for which the inhibition constant (Ki) on hNET [1] is 1.48 ± 0.13 µM; on hDAT [4] it was 4.75 ± 0.53 µM; at hSERT [9], 188 ± 14 µM; at human 5-HT2C receptor [12] (read-out: 5-HT2C [125I]DOI binding Ki ± sem), 10.1 ± 3.2 µM; on human 5-HT2A receptor [16], 41.9 ± 9.6 µM; at human 5-HT1A receptor [17], 9.7 ± 1.8 µM. Also, the Emax is 100% at hDAT [2] (read-out: [3H]Dopamine release % METH maximal effect); less than 3% on human 5-HT2A receptor [3]; 52 ± 10% on human 5-HT2C receptor [8]; 68 ± 11% at human 5-HT1A receptor [11]; 100% on hNET [18] (read-out: [3H]NE release % METH maximal effect). The half-maximal effective concentration (EC50) at human 5-HT2A receptor [3] is more than 1000 µM; on human 5-HT2C receptor [8] it was 74 ± 16 µM; on hNET [22], 0.067 ± 0.018 µM; at human 5-HT1A receptor [11] it was 23.6 ± 8.1 µM; on hSERT [23], 27.8 ± 7.7 µM; on hDAT [24] it was 0.97 ± 0.25 µM. Moreover, the IC50 came out at 0.056 ± 0.015 µM against hDAT [6] and 0.023 ± 0.0055 µM against hNET [20].

The values above are taken from paper PMC3945162 (Psychopharmacology, 2013).
